The assay concerns the target Tyrosine-protein kinase BTK (Homo sapiens, UniProt Q06187). The assay is described as follows: Caliper-Based Kinase Assay: A Caliper-based kinase assay (Caliper Life Sciences, Hopkinton, Mass.) was used to measure inhibition of Btk kinase activity of a compound of the present disclosure. […] The reaction was then terminated with EDTA, final concentration 20 mM and the phosphorylated reaction product was quantified on a Caliper Desktop Profiler (Caliper LabChip 3000).
Tyrosine-protein kinase BTK, sequence (Q06187 whole entry): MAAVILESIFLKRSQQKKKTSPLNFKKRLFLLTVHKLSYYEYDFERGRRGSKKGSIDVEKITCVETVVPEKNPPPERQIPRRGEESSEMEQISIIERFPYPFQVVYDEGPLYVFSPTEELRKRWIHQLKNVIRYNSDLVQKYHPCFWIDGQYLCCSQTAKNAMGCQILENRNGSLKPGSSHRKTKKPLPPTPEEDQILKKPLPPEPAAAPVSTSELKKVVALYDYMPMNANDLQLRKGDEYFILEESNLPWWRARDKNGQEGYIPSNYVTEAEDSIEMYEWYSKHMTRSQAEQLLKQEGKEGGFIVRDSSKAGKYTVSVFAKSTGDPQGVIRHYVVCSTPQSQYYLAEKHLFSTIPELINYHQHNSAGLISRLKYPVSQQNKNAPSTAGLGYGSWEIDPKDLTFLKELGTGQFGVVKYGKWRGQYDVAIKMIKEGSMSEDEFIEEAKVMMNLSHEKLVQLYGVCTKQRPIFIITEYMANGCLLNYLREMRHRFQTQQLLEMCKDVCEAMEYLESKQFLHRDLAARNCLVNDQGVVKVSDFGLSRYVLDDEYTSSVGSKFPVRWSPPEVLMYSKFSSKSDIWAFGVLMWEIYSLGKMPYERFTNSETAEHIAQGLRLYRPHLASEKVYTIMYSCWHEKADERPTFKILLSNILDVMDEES
With `CC(C)(C)N1CCN(C(C)(C)C=C(C#N)C(=O)N2CCC[C@@H](n3nc(-c4ccc(Oc5ccccc5)cc4F)c4c(N)ncnc43)C2)CC1`, inhibition was half-maximal at 0.6 nM (IC50).
Consider `CC(C)(C=C(C#N)C(=O)N1CCC[C@H]1Cn1nc(-c2ccc(Oc3ccccc3)cc2F)c2c(N)ncnc21)N(C1CC1)C1COC1`, for which the midpoint of inhibition, the IC50, lay at 26 nM.
Compound `CC(C)(C=C(C#N)C(=O)N1CCC[C@H]1Cn1nc(-c2ccc(Oc3ccccc3)cc2F)c2c(N)ncnc21)NC1COC1` registered an IC50 of 16.1 nM.

As a reminder, the IC50 is the concentration needed to halve the response being measured.
